Results reported in patent publication US7829721B2, “Specific caspase-10 inhibitors” (Merck Patent GmbH, priority 2004, dated 2010).

How the values were obtained:
[1] = target: caspase 8 (Homo sapiens, UniProt Q14790); test: Caspase inhibition, delayed-time fluorescence method (europium substrate Eu-W1284-CIETDK-QSy-7)
Description: (§1) The substrate used is a tetrapeptide specific to this caspase, having at one of its ends a fluorescent europium marker (W1284) and at the other end a europium chelate fluorescence quencher (QSy-7): Eu-W1284-CIETDK-QSy-7.
(§2) The caspase cleaves the substrate, releasing the quencher. Thus, by excitation at 340 nm, the signal emitted by the fluorescence of the europium is read by WALLAC Victor^2 reader at 615 nm.
They are ready for use or can be divided into aliquots and stored at −80° C. […] 20 μl of this solution are distributed per well of the assay plate. […] The assay is performed with 1 U of enzyme per well, by distributing 20 μl of the diluted solution per well. • The standard inhibitors: The standard inhibitors are dissolved in DMSO to a concentration of 10 mM. They are tested at IC20 and at IC50 on the caspases they inhibit (see following table). The concentrations mentioned in the table are the final concentrations in the assay wells.
(§3) They are then distributed in the wells using this solution to reach the final concentration of IC20 or IC50, i.e. 3 μl in 33 μl of final reaction volume (dilution 1/11). Thus, the final concentration of DMSO in the well is 0.3% (v/v) final. […] An intermediate dilution (1/6.6) is pre-pared in DMSO by diluting 10 μl of the concentrated solution in 66 μl of DMSO (final volume). […] The inhibitors are then distributed in the wells to reach the final screening concentration (10 μM), i.e. 3 μl in 33 μl of final reaction volume (dilution 1/11) and a final concentration of DMSO of 0.3% (v/v) in the well.
The volumes and the protocol were optimised for automated use.
(§4) The incubation takes place for 3 hours 30 minutes at room temperature before reading the fluorescence in delayed time on the WALLAC Victor^2 reader with the filters corresponding to the fluorescence of europium (excitation filter: 340 nm, emission filter: 615 nm).
(§5) The inhibitors are diluted using solutions with concentrations of less than 20 mM in DMSO, and then prediluted in the caspase buffer.

[2] = target: T1, caspase 6 (Homo sapiens, UniProt P55212); test: Caspase inhibition, delayed-time fluorescence method (europium substrate Eu-W1284-CVEIDK-QSy-7)
T1 sequence (P55212 24-179 limits assumed): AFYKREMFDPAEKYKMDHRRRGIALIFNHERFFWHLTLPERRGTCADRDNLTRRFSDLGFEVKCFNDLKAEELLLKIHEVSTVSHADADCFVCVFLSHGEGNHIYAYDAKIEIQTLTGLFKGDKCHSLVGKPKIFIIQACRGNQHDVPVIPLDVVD
T1 sequence (P55212 194-293 limits assumed): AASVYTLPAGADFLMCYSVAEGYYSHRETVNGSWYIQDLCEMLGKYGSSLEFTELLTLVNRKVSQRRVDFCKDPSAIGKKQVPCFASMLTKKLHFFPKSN

[3] = target: T2, caspase-10 (Homo sapiens, UniProt Q92851); test: Caspase inhibition, delayed-time fluorescence method (europium substrate Eu-W1284-CIETDK-QSy-7)
T2 sequence (Q92851 220-415 limits assumed): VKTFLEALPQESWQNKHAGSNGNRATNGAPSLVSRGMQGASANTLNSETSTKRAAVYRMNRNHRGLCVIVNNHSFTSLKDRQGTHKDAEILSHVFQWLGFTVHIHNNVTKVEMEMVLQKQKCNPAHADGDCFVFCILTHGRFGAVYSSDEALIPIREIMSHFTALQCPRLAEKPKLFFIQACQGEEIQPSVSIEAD
T2 sequence (Q92851 416-521 limits assumed): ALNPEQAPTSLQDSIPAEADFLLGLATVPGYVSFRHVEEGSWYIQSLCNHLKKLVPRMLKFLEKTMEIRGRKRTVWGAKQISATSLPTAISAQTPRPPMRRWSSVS
Description: as §1, §2
20 μl of this solution are distributed per well of the assay plate. […] The assay is performed with 1 U of enzyme per well, by distributing 20 μl of the diluted solution per well. • The standard inhibitors: The standard inhibitors are dissolved in DMSO to a concentration of 10 mM.
as §3, §4, §5

[4] = target: T3, caspase 3 (Homo sapiens, UniProt P42574); test: Caspase inhibition, delayed-time fluorescence method (europium substrate Eu-W1284-CDEVDK-QSy-7)
T3 sequence (P42574 29-175 limits assumed): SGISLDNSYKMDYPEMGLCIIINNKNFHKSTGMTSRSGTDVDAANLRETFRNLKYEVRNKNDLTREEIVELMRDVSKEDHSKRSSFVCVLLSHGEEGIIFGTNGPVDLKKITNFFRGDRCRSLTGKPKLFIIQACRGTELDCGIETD
T3 sequence (P42574 176-277 limits assumed): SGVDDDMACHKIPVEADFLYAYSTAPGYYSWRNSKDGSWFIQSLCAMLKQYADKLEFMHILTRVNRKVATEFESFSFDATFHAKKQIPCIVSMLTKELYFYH

[5] = target: T4, caspase 9 (Homo sapiens, UniProt P55211); test: Caspase inhibition, delayed-time fluorescence method (europium substrate Eu-W1284-CLEHDK-QSy-7)
T4 sequence (P55211 1-315 limits assumed): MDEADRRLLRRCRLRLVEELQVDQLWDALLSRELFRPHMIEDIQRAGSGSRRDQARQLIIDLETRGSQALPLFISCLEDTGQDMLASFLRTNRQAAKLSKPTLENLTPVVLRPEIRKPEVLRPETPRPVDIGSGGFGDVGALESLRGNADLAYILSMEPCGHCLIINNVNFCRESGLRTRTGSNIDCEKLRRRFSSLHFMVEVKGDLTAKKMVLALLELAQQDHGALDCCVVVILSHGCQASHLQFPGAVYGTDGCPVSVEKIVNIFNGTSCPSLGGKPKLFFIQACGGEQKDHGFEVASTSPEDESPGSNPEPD
T4 sequence (P55211 331-416 limits assumed): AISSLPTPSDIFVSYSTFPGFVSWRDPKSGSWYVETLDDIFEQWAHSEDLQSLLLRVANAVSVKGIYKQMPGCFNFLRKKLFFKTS

[6] = target: T5, caspase 2 (Homo sapiens, UniProt P42575); test: Caspase inhibition, delayed-time fluorescence method (europium substrate Eu-W1284-CDEVDK-QSy-7)
T5 sequence (P42575 170-325 limits assumed): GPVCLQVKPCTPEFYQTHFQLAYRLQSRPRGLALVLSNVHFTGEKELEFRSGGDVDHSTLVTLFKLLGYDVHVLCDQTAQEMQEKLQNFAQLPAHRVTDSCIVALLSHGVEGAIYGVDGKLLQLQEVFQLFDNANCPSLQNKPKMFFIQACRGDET
T5 sequence (P42575 348-452 limits assumed): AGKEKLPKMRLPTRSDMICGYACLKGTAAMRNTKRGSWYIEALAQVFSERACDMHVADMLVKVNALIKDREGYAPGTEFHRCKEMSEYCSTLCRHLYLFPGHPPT

[7] = system: diabetic rats; conditions: cited from earlier work

caspase 8, sequence (Q14790 217-374 limits assumed): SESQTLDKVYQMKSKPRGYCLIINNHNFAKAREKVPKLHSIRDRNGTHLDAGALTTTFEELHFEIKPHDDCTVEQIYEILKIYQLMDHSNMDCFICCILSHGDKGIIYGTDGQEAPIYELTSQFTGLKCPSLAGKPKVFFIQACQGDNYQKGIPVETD
caspase 8, sequence (Q14790 385-479 limits assumed): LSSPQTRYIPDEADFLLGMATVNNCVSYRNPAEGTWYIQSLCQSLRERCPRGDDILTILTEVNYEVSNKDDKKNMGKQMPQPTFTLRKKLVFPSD

For Cc1ccc(-c2ccc(Cl)cc2CC(=O)O)cc1 [Example 12, (4-chloro-4′-methylbiphenyl-2-yl)acetic acid], the IC50 [1] was > 200 µM, the IC50 [2] was > 200 µM and the IC50 [3] was 13.1 µM. For the same compound, the IC50 [4] was > 200 µM, the IC50 [5] was > 200 µM and the IC50 [6] was > 200 µM.
With O=C(O)Cc1cc(Cl)ccc1-c1ccc(Cl)cc1 [Example 14, (4,4′-dichlorobiphenyl-2-yl)acetic acid] the IC50 [1] was > 200 µM, the IC50 [2] was > 200 µM and the IC50 [3] was 10.1 µM. The IC50 [4] was > 200 µM, the IC50 [5] was > 200 µM and the IC50 [6] was > 200 µM.
In the case of O=C(O)Cc1cc(Cl)ccc1-c1ccc(C(F)(F)F)cc1 [Example 15, [4-chloro-4′-(trifluoromethyl)biphenyl-2-yl]acetic acid], the IC50 [1] is reported as > 200 µM, the IC50 [2] is reported as > 200 µM and the IC50 [3] is reported as 23.6 µM. The IC50 [4] was > 200 µM, the IC50 [5] was > 200 µM and the IC50 [6] was > 200 µM.
With COc1ccc(-c2ccc(Cl)cc2CC(=O)O)cc1 [Example 16, (4-chloro-4′-methoxybiphenyl-2-yl)acetic acid] the IC50 [1] was > 200 µM, the IC50 [2] was > 200 µM and the IC50 [3] was 9 µM. For the same compound, the IC50 [4] was > 200 µM, the IC50 [5] was > 200 µM and the IC50 [6] was > 200 µM.
In the case of N=C(N)NN [aminoguanidine], the “reduced formation of acellular capillaries” value ([7]; diabetic rats treated for 26 weeks) is listed as 80%.
In the case of Cc1ncc(CO)c(CN)c1O [pyridoxamine], the “death of the pericytes” value ([7]; diabetic rats treated for 29 weeks, versus untreated rats) is listed as “prevents the death of the pericytes”.
